Reference: US20070196902A1, “Method of detecting AZT resistance in HIV” (University of Pittsburgh, priority 2006, published 2007)

Legend:
[1] = tested on: HIVLAI containing the M41L/L210W/T215Y mutations (AZT^R HIVLAI) passaged in increasing concentrations of AZT; assay: AZT susceptibility of virus passaged in increasing AZT, selection starting with AZT^R HIVLAI; single-cycle assay in P4/R5 cells; format: cell-based, HIV-1; conditions: for Fold-Resistance: compared to wild-type passaged without AZT
Protocol: Selection of AZT-resistant viruses. Resistant virus was selected in two independent experiments by the passage of wild-type HIVLAI or HIVLAI containing the M41L/L210W/T215Y mutations (AZT^R HIVLAI) in MT-2 cells in increasing concentrations of AZT. To initiate each selection experiment, MT-2 cells (1×10^6) were pretreated for two hours with 0.5 μM and 25 μM AZT for wild-type HIVLAI and AZT^R HIVLAI, respectively, before virus was added. Viral replication was monitored by CPE. At +3/4 CPE (3 or 4 syncytia per field at 100× magnified field), cell-free supernatant was harvested and 0.1 ml of supernatant was added to fresh MT-2 cells to initiate a new passage. The concentration of AZT was doubled every three passages. The selection pressure was increased from an initial AZT concentration of 0.5 μM to a final concentration of 32 μM for wild-type HIVLAI, and from 25 μM to 150 μM for the AZT^R HIVLAI. The concentration of drug required to inhibit viral replication by 50% (IC50) was calculated every five passages to identify changes in AZT susceptibility, and fold-resistance was determined by dividing the IC50 of the mutant virus by the IC50 of wild-type HIV-1LAI. The genotype of the passaged virus was determined as described above.
(§1) Drug susceptibility assays. NRTI susceptibility was determined in P4/R5 cells as described previously (Parikh, U. M., et al. 2005. Antimicrob. Agents Chemother. 49:1139-44). Briefly, threefold dilutions of inhibitor were added to P4/R5 cells in triplicate and cells were infected with an amount of virus that produced 100 relative units of light (RLU) in no drug, virus control wells. After 48 hours, the cells were lysed (Gal-Screen; Tropix/Applied Biosystems, Foster City, Calif.) and the RLU was measured using a ThermoLabSystems luminometer (Waltham, Mass.). The IC50 and fold-resistance were calculated as described above. IC50 values from at least three independent experiments were log10 transformed and compared for statistically significant differences using the two-sample Student's t test.
Selection of AZT-resistant virus. Two independent AZT selection experiments were conducted. One starting with wild-type HIV-1LAI and the second starting with AZT HIV-1LAI (encoding M41L/L210W/T215Y). Both viruses were serially passaged in MT-2 cells in increasing concentrations of AZT. After every 5 passages, AZT susceptibility was measured in a single-cycle viral replication assay in P4/R5 cells (described in Materials and Methods). Viral RNA was extracted, converted to cDNA and the entire coding region of RT (residues 1-560) was PCR amplified and sequenced to monitor the appearance of mutations. In the selection experiment starting with HIV-1LAI, AZT susceptibility was reduced 66-fold by passage 35 and two polymerase domain TAMs were identified: D67N and K70R (Table 1).

[2] = tested on: HIVLAI RT 67N/70R/215F/509L; assay: Drug susceptibility assay in P4/R5 cells, site-directed mutant; format: cell-based, HIV-1
[3] = tested on: HIV-1 RT D549N; conditions: D549N mutation; cited from earlier work
[4] = tested on: HIVLAI RT D67N/K70R/T215F/A371V/Q509L; assay: Drug susceptibility assay in P4/R5 cells, site-directed mutant; format: cell-based, HIV-1
Protocol: as §1
(§2) Construction of mutant recombinant HIV-1. Mutant recombinant plasmid clones of virus were generated by oligonucleotide site-directed mutagenesis as described previously (Shi, C., and J. W. Mellors. 1997. A recombinant retroviral system for rapid […] analysis of human immunodeficiency virus type 1 susceptibility to reverse transcriptase inhibitors. Antimicrob. Agents Chemother. 41:2781-5), using the p6HRT-MO plasmid. p6HRT-MO contains the entire RT and protease coding sequence as previously described (Le Grice, S. F., and F. Gruninger-Leitch. 1990. Rapid purification of homodimer and heterodimer HIV-1 reverse transcriptase by metal chelate affinity chromatography. Eur. J. Biochem. 187:307-14) and four silent restriction sites (Xma I, Mlu I, Xba I, and NgoM IV from the 5′ to 3′ end of RT at codons 14, 358, 490 and 554, respectively). After site-directed mutagenesis (QIAamp kit, QIAGEN, Valencia, Calif.), the mutated RT was ligated into pxxHIV-1LAI MO that contains the entire genome of HIV-1LAI and the same silent restriction sites as p6HRT-MO. Infectious virus was generated by electroporating the mutated xxHIV-1LAI MO plasmid into MT-2 cells as described above. All mutations in recombinant viruses were confirmed by full-length sequencing of the entire RT coding region.

[5] = tested on: HIVLAI RT 67N/70R/215I; assay: as above; format: cell-based, HIV-1
Protocol: as §1, §2

[6] = tested on: HIVLAI RT 67N/70R/215F/371V; assay: as above; format: cell-based, HIV-1
Protocol: as §1, §2

[7] = tested on: HIVLAI RT A371V/Q509L; assay: as above; format: cell-based, HIV-1
Protocol: as §1, §2

[8] = tested on: HIVLAI RT 67N/70R/509L; assay: as above; format: cell-based, HIV-1
Protocol: as §1, §2

[9] = tested on: HIVLAI RT D67N/K70R; assay: as above; format: cell-based, HIV-1
Protocol: as §1, §2

[10] = tested on: HIVLAI RT 67N/70R/215I/509L; assay: as above; format: cell-based, HIV-1
Protocol: as §1, §2

[11] = tested on: HIV-1 RT G335C with "classic" TAMs; conditions: G335C present with "classic" TAMs; cited from earlier work

Compound: Cc1cn([C@H]2C[C@H](N=[N+]=[N-])[C@@H](CO)O2)c(=O)[nH]c1=O [AZT, 3′-azido-3′-dideoxythymidine]
- IC50 ([1]; Human immunodeficiency virus 1, P4/R5, passage 1, AZT concentration 25 μM): 21 µM
- IC50 ([1]; Human immunodeficiency virus 1, P4/R5, passage 10, AZT concentration 50 μM): 34 µM
- IC50 ([1]; Human immunodeficiency virus 1, P4/R5, passage 25, AZT concentration 100 μM, M41L, D67D/N, L210W, L214F, T215Y): 126 µM
- IC50 ([1]; Human immunodeficiency virus 1, P4/R5, passage 30, AZT concentration 150 μM, M41L, D67D/N, L210W, L214F, T215Y): 181 µM
- IC50 ([1]; Human immunodeficiency virus 1, P4/R5, passage 35, AZT concentration 150 μM, M41L, D67N, L210W, L214F, T215Y): > 810 µM
- Fold-Resistance ([1]; passage 25, M41L, D67D/N, L210W, L214F, T215Y): 39 fold
- Fold-Resistance ([1]; passage 30, M41L, D67D/N, L210W, L214F, T215Y): 62 fold
- Fold-Resistance ([2]; 67N/70R/215F/509L compared to wild-type): 128 fold
- IC50 ([2]; Human immunodeficiency virus 1, P4/R5, 67N/70R/215F/509L, mean ± SD): 28 ± 17 µM
- increase in resistance (reduced susceptibility) [3]: 12 fold
- Fold-Resistance ([4]; 67N/70R/215F/371V/509L compared to wild-type): 934 fold
- IC50 ([4]; Human immunodeficiency virus 1, P4/R5, 67N/70R/215F/371V/509L, mean ± SD): 203 ± 40 µM
- Fold-Resistance ([5]; 67N/70R/215I compared to wild-type): 1.3 fold
- IC50 ([5]; Human immunodeficiency virus 1, P4/R5, 67N/70R/215I, mean ± SD): 0.3 ± 0.2 µM
- Fold-Resistance ([6]; 67N/70R/215F/371V compared to wild-type): 22 fold
- IC50 ([6]; Human immunodeficiency virus 1, P4/R5, 67N/70R/215F/371V, mean ± SD): 4.9 ± 2.9 µM
- Fold-Resistance ([7]; A371V/Q509L compared to wild-type): 1.7 fold
- IC50 ([7]; Human immunodeficiency virus 1, P4/R5, A371V/Q509L, mean ± SD): 0.3 ± 0.06 µM
- Fold-Resistance ([8]; 67N/70R/509L compared to wild-type): 14 fold
- IC50 ([8]; Human immunodeficiency virus 1, P4/R5, 67N/70R/509L, mean ± SD): 3 ± 1 µM
- Fold-Resistance ([9]; 67N/70R compared to wild-type): 4.6 fold
- IC50 ([9]; Human immunodeficiency virus 1, P4/R5, 67N/70R, mean ± SD): 1.1 ± 0.6 µM
- Fold-Resistance ([10]; 67N/70R/215I/509L compared to wild-type): 14 fold
- IC50 ([10]; Human immunodeficiency virus 1, P4/R5, 67N/70R/215I/509L, mean ± SD): 3 ± 2.2 µM
- reduction of AZT susceptibility [11]: 30 fold
